# Like-named read-outs stand apart in the source and are kept apart here.
# Columns and labels:
# [1] = test system: Key Broadleaf Weed and Crop Species; assay: Post-emergent Test II herbicidal activity (Table 15); assay type: in vivo; settings: post-emergence, 336 h, 14 d; for pest or weed control at 35 g/ha: 35 g ai/ha; for pest or weed control at 70 g/ha: 70 g ai/ha; for pest or weed control at 140 g/ha: 140 g ai/ha
# Procedure, shortened: (§1)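 Visual injury rating (0 = none, 100% = complete kill) made 14 d after treatment, relative to untreated plants. Compounds in an acetone/DMSO/aqueous crop-oil/surfactant spray, at top rate and serial 1/2×-1/16× rates, were applied at 187 L/ha overhead to first-second true leaf plants raised 7-21 d in greenhouse.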
# [2] = test system: Key Grass and Sedge Weeds as well as Grass Crops; assay: Post-emergent Test II herbicidal activity (Table 16); assay type: in vivo; settings: post-emergence, 336 h, 14 d; for pest or weed control at 35 g/ha: 35 g ai/ha; for pest or weed control at 70 g/ha: 70 g ai/ha; for pest or weed control at 140 g/ha: 140 g ai/ha
# Procedure, shortened: as §1
# [3] = Abutilon theophrasti, velvetleaf (Abutilon theophrasti), read-out: Visual Growth Reduction (%) 14 Days After Application, ABUTH
# [4] = Amaranthus retroflexus, redroot pigweed (Amaranthus retroflexus), read-out: Visual Growth Reduction (%) 14 Days After Application, AMARE
# [5] = Brassica napus, oilseed rape, canola (Brassica napus), read-out: Visual Growth Reduction (%) 14 Days After Application, BRSNN
# [6] = Chenopodium album, lambsquarters (Chenopodium album), read-out: Visual Growth Reduction (%) 14 Days After Application, CHEAL
# [7] = Euphorbia heterophylla, wild poinsettia (Euphorbia heterophylla), read-out: Visual Growth Reduction (%) 14 Days After Application, EPHHL
# [8] = Helianthus annuus, sunflower (Helianthus annuus), read-out: Visual Growth Reduction (%) 14 Days After Application, HELAN
# [9] = Cyperus esculentus, yellow nutsedge (Cyperus esculentus), read-out: Visual Growth Reduction (%) 14 Days After Application, CYPES
# [10] = Echinochloa crus-galli, barnyardgrass (Echinochloa crus-galli), read-out: Visual Growth Reduction (%) 14 Days After Application, ECHCG
# [11] = Oryza sativa, rice (Oryza sativa), read-out: Visual Growth Reduction (%) 14 Days After Application, ORYSA
# [12] = Setaria faberi, giant foxtail (Setaria faberi), read-out: Visual Growth Reduction (%) 14 Days After Application, SETFA
# [13] = Triticum aestivum, wheat, spring (Triticum aestivum), read-out: Visual Growth Reduction (%) 14 Days After Application, TRZAS
# [14] = Zea mays, maize, corn (Zea mays), read-out: Visual Growth Reduction (%) 14 Days After Application, ZEAMX
structure (smiles),measurement,setting,value
"COC(=O)c1nc(-c2ccc3[nH]ccc3c2)c(F)c(N)c1Cl [Compound 1.02, Methyl 4-amino-3-chloro-5-fluoro-6-(1H-indol-5-yl)picolinate]",pest or weed control at 35 g/ha,[1]; [3],0 to 29%
same,pest or weed control at 70 g/ha,[1]; [3],0 to 29%
same,pest or weed control at 140 g/ha,[1]; [3],0 to 29%
same,pest or weed control at 70 g/ha,[1]; [4],85 to 94%
same,pest or weed control at 140 g/ha,[1]; [4],85 to 94%
same,pest or weed control at 35 g/ha,[1]; [5],0 to 29%
same,pest or weed control at 70 g/ha,[1]; [5],0 to 29%
same,pest or weed control at 140 g/ha,[1]; [5],0 to 29%
same,pest or weed control at 35 g/ha,[1]; [6],75 to 84%
same,pest or weed control at 70 g/ha,[1]; [6],85 to 94%
same,pest or weed control at 140 g/ha,[1]; [6],95 to 100%
same,pest or weed control at 35 g/ha,[1]; [7],45 to 59%
same,pest or weed control at 70 g/ha,[1]; [7],45 to 59%
same,pest or weed control at 140 g/ha,[1]; [7],60 to 74%
same,pest or weed control at 35 g/ha,[1]; [8],45 to 59%
same,pest or weed control at 70 g/ha,[1]; [8],60 to 74%
same,pest or weed control at 140 g/ha,[1]; [8],60 to 74%
same,pest or weed control at 35 g/ha,[2]; [9],0 to 29%
same,pest or weed control at 70 g/ha,[2]; [9],0 to 29%
same,pest or weed control at 140 g/ha,[2]; [9],0 to 29%
same,pest or weed control at 35 g/ha,[2]; [10],0 to 29%
same,pest or weed control at 70 g/ha,[2]; [10],0 to 29%
same,pest or weed control at 140 g/ha,[2]; [10],45 to 59%
same,pest or weed control at 35 g/ha,[2]; [11],0 to 29%
same,pest or weed control at 70 g/ha,[2]; [11],0 to 29%
same,pest or weed control at 140 g/ha,[2]; [11],0 to 29%
same,pest or weed control at 35 g/ha,[2]; [12],0 to 29%
same,pest or weed control at 70 g/ha,[2]; [12],0 to 29%
same,pest or weed control at 140 g/ha,[2]; [12],0 to 29%
same,pest or weed control at 35 g/ha,[2]; [13],0 to 29%
same,pest or weed control at 70 g/ha,[2]; [13],0 to 29%
same,pest or weed control at 140 g/ha,[2]; [13],0 to 29%
same,pest or weed control at 35 g/ha,[2]; [14],0 to 29%
same,pest or weed control at 70 g/ha,[2]; [14],0 to 29%
same,pest or weed control at 140 g/ha,[2]; [14],0 to 29%
same,melting point,,221 to 224 °C

# From US20170050957A1, “4-AMINO-6-(HETEROCYCLIC)PICOLINATES AND 6-AMINO-2-(HETEROCYCLIC)PYRIMIDINE-4-CARBOXYLATES AND THEIR USE AS HERBICIDES” (Dow AgroSciences LLC, priority 2013, published 2017)
